{"source": "patent US7151096", "note": "Like-named read-outs stand apart in the source and are kept apart here."}
{"smiles": "c1cc2cc(c1)OCCCNc1ncccc1-c1ccnc(n1)N2", "values": [{"measurement": "ring closure, yield of all isomers", "setting": "from Oc1cccc(Nc2nccc(-c3cccnc3NCCCBr)n2)c1, ether bond, K2CO3, acetone, 19.3 mM, 56.0 °C, 6.0 h, 3 steps", "result": 34.6, "unit": "%"}]}
{"smiles": "c1cc2cc(c1)OCCCNc1cc(ccn1)-c1ccnc(n1)N2", "values": [{"measurement": "ring closure, yield of all isomers", "setting": "from Oc1cccc(Nc2nccc(-c3ccnc(NCCCBr)c3)n2)c1, ether bond, K2CO3, acetone, 6.5 mM, 56.0 °C, 3.0 h, 2 steps", "result": 26.5, "unit": "%"}]}
{"smiles": "O=C1Cc2cccc(c2)Nc2nccc(n2)-c2ccnc(c2)NCCCN1", "values": [{"measurement": "ring closure, yield of all isomers", "setting": "from NCCCNc1cc(-c2ccnc(Nc3cccc(CC(=O)O)c3)n2)ccn1, amide bond, HATU, DMF, 1.52 mM, 0.0 °C, 3.0 h", "result": 74.2, "unit": "%"}]}
